Laboratory results published in ChEMBL document CHEMBL1201862, “PubChem BioAssay data set” (2004).
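Exposure lasted 48 hours, with cells grown in 96-well plates and compounds tested at five concentrations. At the GI50, growth is halved.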 Activity calls are given as the source filed them. Cut-off read from the data, not from the text of the source: active = GI50 up to about 1.1 µM and inactive = higher.

Columns and labels:
Test in all cases: NCI-60 cell line screen, 48 h
HOP-18 = tested on: HOP-18
M19-MEL = tested on: M19-MEL
KM-20L2 = tested on: KM-20L2
DMS-273 = tested on: DMS-273
SNB-78 = tested on: SNB-78
XF498 = tested on: XF498
DMS-114 = tested on: DMS-114
RXF 631 = tested on: RXF 631
DLD-1 = tested on: DLD-1

Measured: GI50

Cc1cccc(C)c1NC(=O)C(C#N)C1=C(Cl)C(=O)c2ccccc2C1=O (configuration not stated)
inactive: HOP-18 12.7 µM | M19-MEL 4.55 µM | KM-20L2 24.1 µM | DMS-273 30.5 µM | SNB-78 23.4 µM | XF498 15.5 µM | DMS-114 15.3 µM | RXF 631 15.4 µM | DLD-1 8.15 µM

CC1Nc2ccccc2NC1C=C(C#N)C#N (configuration not stated)
inactive: HOP-18 20 µM | M19-MEL 15 µM | KM-20L2 16.3 µM | DMS-273 12.2 µM | SNB-78 15.3 µM | XF498 17.1 µM | DMS-114 19.8 µM | RXF 631 11.9 µM | DLD-1 14.4 µM

O=C(/C=C/c1ccccc1F)c1ccc(Cl)c(Cl)c1
inactive: HOP-18 16.4 µM | M19-MEL 24 µM | KM-20L2 36.3 µM | DMS-273 35.1 µM | SNB-78 > 69.3 µM | XF498 28.5 µM | DMS-114 24 µM | RXF 631 > 53.7 µM | DLD-1 23.9 µM
